Results as given in ChEMBL document CHEMBL5154935, “Design, Synthesis, and Biological Evaluation of Novel Evodiamine Derivatives as Potential Antihepatocellular Carcinoma Agents” (J Med Chem, 2022).
The source made the active and inactive calls. No cut-off for these calls is given here.

Columns and labels:
HepG2 = assay: Antiproliferative activity against human HepG2 cells treated for 72 hrs by MTT assay; type: functional, cell-based; settings: HepG2, 72 h
SK-HEP1 [1] = assay: Antiproliferative activity against human SK-HEP1 cells treated for 72 hrs by MTT assay; type: functional, cell-based; settings: SK-HEP1, 72 h
[2] = molecular target: T1, DNA topoisomerase 1 (Homo sapiens) (UniProt P11387); assay: Inhibition of Top1 (unknown origin) assessed as inhibition of relaxation of supercoiled pBR322 plasmid DNA at 12.5 uM incubated for 25 mins by ethidium bromide staining based agarose gel electrophoresis analysis relative to control
T1 sequence (whole entry): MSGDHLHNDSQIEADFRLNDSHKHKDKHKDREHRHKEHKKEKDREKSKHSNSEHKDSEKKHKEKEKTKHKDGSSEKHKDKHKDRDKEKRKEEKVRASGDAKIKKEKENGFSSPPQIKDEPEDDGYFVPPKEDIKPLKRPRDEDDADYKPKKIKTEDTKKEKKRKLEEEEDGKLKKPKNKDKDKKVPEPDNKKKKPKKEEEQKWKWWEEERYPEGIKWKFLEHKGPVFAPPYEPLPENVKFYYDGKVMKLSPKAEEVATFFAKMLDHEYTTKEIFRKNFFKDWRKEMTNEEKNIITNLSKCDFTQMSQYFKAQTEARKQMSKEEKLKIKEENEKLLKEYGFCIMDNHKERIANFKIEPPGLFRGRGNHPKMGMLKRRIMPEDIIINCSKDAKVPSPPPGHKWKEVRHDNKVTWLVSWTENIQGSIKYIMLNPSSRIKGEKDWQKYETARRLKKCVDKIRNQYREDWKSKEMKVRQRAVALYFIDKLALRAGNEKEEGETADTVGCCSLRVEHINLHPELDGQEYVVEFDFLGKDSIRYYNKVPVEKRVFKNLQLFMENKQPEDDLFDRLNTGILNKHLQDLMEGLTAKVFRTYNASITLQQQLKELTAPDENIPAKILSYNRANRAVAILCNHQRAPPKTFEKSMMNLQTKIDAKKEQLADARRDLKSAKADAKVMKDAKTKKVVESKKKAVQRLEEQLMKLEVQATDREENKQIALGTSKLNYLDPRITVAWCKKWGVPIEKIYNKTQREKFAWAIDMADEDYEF

SK-HEP1 [3] = assay: Antiproliferative activity against human SK-Hep1 cells assessed as inhibition of cell viability treated for 24 to 72 hrs by MTT assay; type: functional, cell-based; settings: time 24-72 hrs, DDE = dose-dependent effect
HCC = assay: Inhibition of cell proliferation of human HCC cells treated for 24 hrs by EdU staining based fluorescence microscopy assay; type: functional; settings: dose 3-18 nM, DDE = dose-dependent effect
SK-HEP1 [4] = assay: Induction of cell cycle arrest in human SK-Hep1 cells assessed as accumulation at S phase at 80 nM treated for 24 hrs by PI staining based flow cytometry (reference value: 24.98 %); type: functional
Huh-7 [5] = assay: Induction of cell cycle arrest in human Huh-7 cells assessed as accumulation at G2 phase at 80 nM treated for 24 hrs by PI staining based flow cytometry (reference value: 15.90 %); type: functional
Huh-7 [6] = assay: Induction of cell cycle arrest in human Huh-7 cells assessed as accumulation at G1 phase at 40 nM treated for 24 hrs by PI staining based flow cytometry (reference value: 60.77 %); type: functional
SK-HEP1 [7] = assay: Induction of cell cycle arrest in human SK-Hep1 cells assessed as accumulation at G2 phase at 80 nM treated for 24 hrs by PI staining based flow cytometry (reference value: 16.55 %); type: functional
SK-HEP1 [8] = assay: Induction of cell cycle arrest in human SK-Hep1 cells assessed as accumulation at G1 phase at 40 nM treated for 24 hrs by PI staining based flow cytometry (reference value: 58.47 %); type: functional
SK-HEP1 [9] = assay: Induction of cell cycle arrest in human SK-Hep1 cells assessed as accumulation at G2 phase at 40 nM treated for 24 hrs by PI staining based flow cytometry (reference value: 16.55 %); type: functional
SK-HEP1 [10] = assay: Induction of cell cycle arrest in human SK-Hep1 cells assessed as accumulation at G2 phase at 10 nM treated for 24 hrs by PI staining based flow cytometry (reference value: 16.55 %); type: functional
SK-HEP1 [11] = assay: Induction of cell cycle arrest in human SK-Hep1 cells assessed as accumulation at S phase at 10 nM treated for 24 hrs by PI staining based flow cytometry (reference value: 24.98 %); type: functional
Huh-7 [12] = assay: Induction of apoptosis in human Huh-7 cells assessed as change in cell membrane permeability by measuring blue fluorescence incubated for 24 hrs by Hoechst staining based microscopy; type: functional; settings: dose 12-60 nM, DDE = dose-dependent effect
Huh-7 [13] = assay: Induction of apoptosis in human Huh-7 cells assessed as cytoskeleton disintegration incubated for 24 hrs by Giemsa staining based microscopy; type: functional, cell-based; settings: dose 12-60 nM, DDE = dose-dependent effect
SK-HEP1 [14] = assay: Induction of apoptosis in human SK-Hep1 cells assessed as cell membrane permeability by measuring blue fluorescence incubated for 24 hrs by Hoechst staining based microscopy; type: functional; settings: dose 12-60 nM, DDE = dose-dependent effect
SK-HEP1 [15] = assay: Induction of apoptosis in human SK-Hep1 cells assessed as cell shrinkage incubated for 24 hrs by Giemsa staining based microscopy; type: functional; settings: dose 12-60 nM, DDE = dose-dependent effect
Huh-7 [16] = assay: Induction of apoptosis in human Huh-7 cells assessed as necrotic cells at 10 nM incubated for 24 hrs by annexin V-FITC/PI staining flow cytometry (reference value: 1.08 %); type: functional
Huh-7 [17] = assay: Induction of apoptosis in human Huh-7 cells assessed as viable cells at 80 nM incubated for 24 hrs by annexin V-FITC/PI staining flow cytometry (reference value: 97.3 %); type: functional; settings: read-out: Activity
SK-HEP1 [18] = assay: Induction of apoptosis in human SK-Hep1 cells assessed as necrotic cells at 10 nM incubated for 24 hrs by annexin V-FITC/PI staining flow cytometry (reference value: 0.73 %); type: functional
SK-HEP1 [19] = assay: Induction of apoptosis in human SK-Hep1 cells assessed as late apoptotic cells at 40 nM incubated for 24 hrs by annexin V-FITC/PI staining flow cytometry (reference value: 1.13 %); type: functional
SK-HEP1 [20] = assay: Induction of apoptosis in human SK-Hep1 cells assessed as necrotic cells at 40 nM incubated for 24 hrs by annexin V-FITC/PI staining flow cytometry (reference value: 0.73 %); type: functional
Huh-7 [21] = assay: Induction of ROS generation in human Huh-7 cells incubated for 24 hrs by DCFH2-DA probe based flow cytometry; type: functional, cell-based; settings: dose 10-80 nM, DDE = dose-dependent effect
HSC-T6 = assay: Antiproliferative activity against TGF-beta-1-stimulated rat HSC-T6 cells assessed as suppression of cell proliferation at 0.70 to 60 uM preincubated with TGFbeta-1 for 1 day followed by compound addition and measured after 48 hrs; type: functional, cell-based; settings: dose 0.7-60 µM
[22] = Induction of apoptosis in rat HSC-T6 cells assessed as viable cells at 80 nM pretreated with TGFbeta-1 for 1 day followed by compound addition and measured after 24 hrs by flow cytometry (reference value: 97.5 %); type: functional; settings: read-out: Activity
[23] = Induction of apoptosis in rat HSC-T6 cells assessed as early apoptotic cells at 80 nM pretreated with TGFbeta-1 for 1 day followed by compound addition and measured after 24 hrs by flow cytometry (reference value: 0.17 %); type: functional
SMMC-7721 = assay: Antiproliferative activity against human SMMC-7721 cells treated for 72 hrs by MTT assay; type: functional, cell-based; settings: SMMC-7721, 72 h

In the case of `O=C1c2cc(F)cc(F)c2N(c2cccc(F)c2)C2c3[nH]c4ccc(O)cc4c3CCN12` (centres undefined), the IC50 (HepG2) is reported as 90 nM, the IC50 (SK-HEP1 [1]) is reported as 70 nM and the inhibition [2] is reported as 43.9%. For the same compound, the Activity (SK-HEP1 [3]) was “Dde”, the inhibition (HCC) was “Dde” and the Activity (SK-HEP1 [4]) was 4.5%. It also gave an Activity (Huh-7 [5]) of 78.5%, an Activity (Huh-7 [6]) of 15.01% and an Activity (SK-HEP1 [7]) of 83.92%. For the same compound, the Activity (SK-HEP1 [8]) was 21.83%, the Activity (SK-HEP1 [9]) was 74.07% and the Activity (SK-HEP1 [10]) was 26.65%. The Activity (SK-HEP1 [11]) was 18.42%, the Activity (Huh-7 [12]) was “Dde” and the Activity (Huh-7 [13]) was “Dde”. The Activity (SK-HEP1 [14]) was “Dde”, the Activity (SK-HEP1 [15]) was “Dde” and the Activity (Huh-7 [16]) was 1.53%. For the same compound, the viability at 0.08 µM (Huh-7 [17]) was 58.4%, the Activity (SK-HEP1 [18]) was 2.39% and the Activity (SK-HEP1 [19]) was 13.6%. For the same compound, the Activity (SK-HEP1 [20]) was 2.92%, the Activity (Huh-7 [21]) was “Dde” and the Activity (HSC-T6) was “Active”. The viability at 0.08 µM [22] was 83.8%, the Activity [23] was 0.72% and the IC50 (SMMC-7721) was 90 nM.

With `CC(=O)Oc1ccc2[nH]c3c(c2c1)CCN1C(=O)c2cc(F)cc(F)c2N(c2cccc(F)c2)C31` (centres undefined) the IC50 (HepG2) was 180 nM, the IC50 (SK-HEP1 [1]) was 60 nM and the inhibition [2] was 56.1%. The Activity (SK-HEP1 [3]) was “Dde”, the inhibition (HCC) was “Dde” and the Activity (SK-HEP1 [4]) was 3.88%. The Activity (Huh-7 [5]) was 74.38%, the Activity (Huh-7 [6]) was 28.25% and the Activity (SK-HEP1 [7]) was 76.35%. For the same compound, the Activity (SK-HEP1 [8]) was 25.35%, the Activity (SK-HEP1 [9]) was 70.47% and the Activity (SK-HEP1 [10]) was 18.08%. For the same compound, the Activity (SK-HEP1 [11]) was 19.4%, the Activity (Huh-7 [12]) was “Dde” and the Activity (Huh-7 [13]) was “Dde”. For the same compound, the Activity (SK-HEP1 [14]) was “Dde”, the Activity (SK-HEP1 [15]) was “Dde” and the Activity (Huh-7 [16]) was 1.51%. The viability at 0.08 µM (Huh-7 [17]) was 59.7%, the Activity (SK-HEP1 [18]) was 0.58% and the Activity (SK-HEP1 [19]) was 13.4%. For the same compound, the Activity (SK-HEP1 [20]) was 2.44%, the Activity (Huh-7 [21]) was “Dde” and the Activity (HSC-T6) was “Active”. It also gave a viability at 0.08 µM [22] of 41.7%, an Activity [23] of 0.83% and an IC50 (SMMC-7721) of 80 nM.
